Converted amounts (≈) assume the structure as drawn.
Experiments:
Assay type in all cases: physicochemical
[1] = Aqueous solubility of the drugs
Excerpt: It will be recognized that aqueous solubility of many drugs is pH dependent; in the case of such drugs the solubility of interest herein is at a physiologically relevant pH, for example a pH of about 1 to about 8.

[2] = Solubility of ABT-102 in various carriers (Example 14); conditions: thermodynamic from solid, room temperature, read-out: Solubility (S)
Experimental: An accurately weighed quantity of about 1 g of each excipient was weighed into three glass vials. Semisolid excipients were warmed in a water bath at around 50-60° C. until completely melted before weighing. An accurately weighed quantity of ABT-102 of about 25 mg, 50 mg and 100 mg was weighed into each of the three vials containing the same excipients. The vials were closed tightly and mixed for around 30 seconds by vortexing and then sonicating in a warm water bath. The vials were visually observed for dissolution after 5-6 hours. Solubility is reported in Table 11 below based on volume of carrier providing a clear solution and volume of carrier where solid was present. All solubility values were determined at room temperature.

[3] = Screening of carriers for solubility of ABT-869 (Example 1); conditions: thermodynamic from solid, room temperature, read-out: Solubility (S)
Experimental: Approximately 20 mg of ABT-869 was weighed and added to a 0.3 ml vial. A test carrier (100 μl) was then added by pipette to the vial. The vial was three times alternately vortexed for about 30 seconds and sonicated for about 1 minute to ensure adequate wetting and dispersion of the ABT-869. The vial was wrapped in aluminum foil, placed in a Labquake™ rotator and rotated for a minimum of 24 hours. […] If solid was still present, carrier was added until all solid had dissolved and the resulting solution was clear. Approximate solubility is reported in Table 1 below as a range based on volume of carrier providing a clear solution and volume of carrier where solid was present. All solubility values were determined at room temperature.

[4] = Solubility of ABT-869 in carriers comprising Phosal 53 MCT (Example 2, HPLC); conditions: 25° C.
Experimental: Solubility of ABT-869 was measured in various carriers comprising Phosal 53 MCT™. Approximately 100-400 mg of ABT-869 was weighed and added to a 4 ml glass vial, to which 2 ml of a test carrier was added. The vial was then vortexed and sonicated for 10 minutes. The vials were wrapped with aluminum foil, placed in a water bath at 25° C. and agitated for 2 days. The contents of the vials were then filtered and the filtrate diluted 25× with mobile phase for HPLC analysis.

[5] = Solubility of isotretinoin in Phosal 53 MCT and typical solvents (Example 11)
[6] = Solubility of paricalcitol in various carriers (Example 13)

`CC(C)(C)c1ccc2c(c1)CC[C@H]2NC(=O)Nc1cccc2[nH]ncc12` [ABT-102] showed a solubility ([1]; water, pH 1.1, simulated gastric fluid, read-out: solubility in water) of roughly 0.102 µg/mL (≈ 0.000293 mM), a solubility ([1]; water, pH 6.8, aqueous buffer, read-out: solubility in water) of roughly 0.0573 µg/mL (≈ 0.000164 mM) and a solubility ([2]; oil or lipid, carrier Gelucire 44/14) of 25 to 50 mg/mL (≈ 71.7 to 143 mM). The solubility ([2]; oil or lipid, carrier Phosal 50 PG) was 50 to 100 mg/mL (≈ 143 to 287 mM), the solubility ([2]; oil or lipid, carrier Phosal 53 MCT) was 50 to 100 mg/mL (≈ 143 to 287 mM) and the solubility ([2]; oil or lipid, carrier Vit.E TPGS) was less than 200 mg/mL. The solubility ([2]; organic solvent or mixture, carrier PEG 400) was 71 mg/mL (≈ 204 mM) and the solubility ([2]; organic solvent or mixture, carrier VP Dimer (VPD)) was 160 mg/mL (≈ 459 mM).
With `Cc1ccc(F)c(NC(=O)Nc2ccc(-c3cccc4[nH]nc(N)c34)cc2)c1` [ABT-869, N-[4-(3-amino-1H-indazol-4-yl)phenyl]-N′-(2-fluoro-5-methylphenyl)urea] the solubility ([1]; pH 1, simulated gastric fluid) was roughly 1.7 µg/mL (≈ 0.00453 mM), the solubility ([1]; pH 5, aqueous buffer) was roughly 0.027 µg/mL (≈ 7.19e-05 mM) and the solubility ([3]; oil or lipid, carrier 10% ethanol, 90% Phosal 50 PG) was 50 to 67 mg/mL (≈ 133 to 178 mM). It also gave a solubility ([3]; oil or lipid, carrier 10% ethanol, 90% Phosal 53 MCT) of 67 to 100 mg/mL (≈ 178 to 266 mM), a solubility ([3]; oil or lipid, carrier 100% Captex 355 EP) of less than 50 mg/mL and a solubility ([3]; organic solvent or mixture, carrier 10% ethanol, 20% polysorbate 80, 70% PEG 400) greater than 200 mg/mL. For the same compound, the solubility ([3]; organic solvent or mixture, carrier 10% ethanol, 30% Phosal 50 PG, 60% PEG 400) was greater than 200 mg/mL, the solubility ([3]; organic solvent or mixture, carrier 10% ethanol, 90% PEG 400) was greater than 200 mg/mL and the solubility ([3]; organic solvent or mixture, carrier 100% PEG 400) was greater than 200 mg/mL. The solubility ([4]; carrier 5% ethanol, 95% Phosal 53 MCT) was 115 mg/g, the solubility ([4]; carrier 10% PEG 400, 0.5% Tween 80, 4.5% ethanol, 85% Phosal 53 MCT) was greater than 122 mg/g and the solubility ([4]; carrier 10% PEG 400, 5% ethanol, 85% Phosal 53 MCT) was greater than 123 mg/g. It also gave a solubility ([4]; carrier 10% PEG 400, 90% Phosal 53 MCT) of 139 mg/g, a solubility ([4]; carrier 10% ethanol, 90% Phosal 53 MCT) of 97 mg/g and a solubility ([4]; carrier 20% PEG 400, 80% Phosal 53 MCT) of 166 mg/g. It also gave a solubility ([4]; carrier 30% PEG 400, 70% Phosal 53 MCT) of 185 mg/g, a solubility ([4]; carrier 40% PEG 400, 60% Phosal 53 MCT) of 199 mg/g and a solubility ([4]; carrier 50% PEG 400, 50% Phosal 53 MCT) of 221 mg/g. For the same compound, the solubility ([4]; carrier 100% Phosal 53 MCT) was 95 mg/g.
Work on `CC1=C(/C=C/C(C)=C/C=C/C(C)=C\C(=O)O)C(C)(C)CCC1` [Isotretinoin] yielded a solubility [1] of roughly 5 µg/mL (≈ 0.0166 mM), a solubility limit ([5]; in Phosal 53 MCT at 25° C.) of 72 to 78 mg/g and a solubility ([5]; in caprylic/capric triglycerides) of 5.1 mg/g. The solubility ([5]; in ethanol) was 16.7 mg/g, the solubility ([5]; in oleic acid) was 19.1 mg/g and the solubility ([5]; in soybean oil) was 2.4 mg/g.
In the case of `C[C@H](/C=C/[C@H](C)C(C)(C)O)[C@H]1CC[C@H]2/C(=C/C=C3C[C@@H](O)C[C@H](O)C3)CCC[C@]12C` [paricalcitol], the “Solubility (mean of 2 tests)” value ([6]; carrier 10% hydroxypropyl-β-cyclodextrin in PEG) is reported as 734 µg/g, the “Solubility (mean of 2 tests)” value ([6]; carrier Neobee M5 + 0.5% ethanol) is reported as 194 µg/g and the “Solubility (mean of 2 tests)” value ([6]; carrier PEG 400) is reported as 1,085 μg/g. The “Solubility (mean of 2 tests)” value ([6]; carrier Phosal 50 SA) was 752 µg/g, the “Solubility (mean of 2 tests)” value ([6]; carrier Phosal 53 MCT) was 1,459 μg/g and the “Solubility (mean of 2 tests)” value ([6]; carrier castor oil) was 344 µg/g. For the same compound, the “Solubility (mean of 2 tests)” value ([6]; carrier glyceryl monooleate) was 1,067 μg/g, the “Solubility (mean of 2 tests)” value ([6]; carrier medium chain monoglycerides (Capmul MCM)) was 5,057 μg/g and the “Solubility (mean of 2 tests)” value ([6]; carrier medium chain triglycerides (Neobee M5)) was 165 µg/g. For the same compound, the “Solubility (mean of 2 tests)” value ([6]; carrier oleic acid) was 819 µg/g, the “Solubility (mean of 2 tests)” value ([6]; carrier polysorbate 80 (Tween 80)) was 1,353 μg/g and the “Solubility (mean of 2 tests)” value ([6]; carrier propylene glycol) was 5,791 μg/g. The “Solubility (mean of 2 tests)” value ([6]; carrier triethyl citrate) was 453 µg/g and the solubility ([1]; pH 7.4, aqueous buffer) was 0.0115 µg/mL (≈ 2.76e-05 mM).
